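A five-concentration, 48-hour dose response in 96-well plates underlies each endpoint, interpolated linearly between surrounding concentrations. GI50: concentration for 50% inhibition of growth. At the TGI there is no net growth.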
How the values were obtained:
Test in all cases: NCI tumour cell line growth inhibition, 48 h
[1] = tested on: BT-549 breast
[2] = tested on: TK-10 renal
[3] = tested on: CCRF-CEM leukemia
[4] = tested on: DU-145 prostate
[5] = tested on: SK-MEL-28 melanoma
[6] = tested on: HOP-92 NSCLC
[7] = tested on: OVCAR-8 ovarian
[8] = tested on: 786-0 renal
[9] = tested on: SNB-19 CNS

Structure (SMILES)	TGI [1]	TGI [2]	TGI [3]	TGI [4]	TGI [5]	TGI [6]	TGI [7]	TGI [8]	TGI [9]	GI50 [1]	GI50 [2]	GI50 [3]	GI50 [4]	GI50 [9]	GI50 [5]	GI50 [6]	GI50 [7]
Cc1cc(O)c(C(C)C)cc1SC#N	36.4 µM	31.8 µM	24.6 µM	28.8 µM	33.8 µM	25.3 µM	88.9 µM	–	–	–	–	–	–	–	–	–	–
C/C=C\C(CC(=O)NCCc1cn(C(=O)OCc2ccccc2)c2ccccc12)CC(=O)OC (stereo not given)	> 100 µM	> 100 µM	–	> 100 µM	> 100 µM	> 100 µM	> 100 µM	> 100 µM	> 100 µM	–	–	–	–	–	–	–	–
N=c1oc2ccc3ccccc3c2cc1C(N)=O	> 100 µM	–	> 100 µM	> 100 µM	> 100 µM	> 100 µM	> 100 µM	> 100 µM	> 100 µM	–	–	–	–	–	–	–	–
CO/C(=N\N=C\c1cccc(Cl)c1)c1ccncc1	> 10 µM	> 10 µM	> 10 µM	> 10 µM	–	> 10 µM	> 10 µM	> 10 µM	> 10 µM	–	–	–	–	–	–	–	–
COC(=O)C1CCC(=O)N1C(=O)Cc1ccc(OC)cc1 (stereo not given)	–	> 100 µM	–	–	> 100 µM	> 100 µM	> 100 µM	–	> 100 µM	–	–	–	–	–	–	–	–
Cc1nc2c3c(ncn2n1)Oc1c(c(-c2ccccc2)nn1-c1ccccc1)C3c1ccc(Cl)cc1 (stereo not given)	–	> 100 µM	–	> 100 µM	> 100 µM	> 100 µM	> 100 µM	> 100 µM	> 100 µM	–	–	–	–	–	–	–	–
O=[N+]([O-])c1ccc(S[C@@H]2[C@H]3c4c(-c5ccccc5)[nH]c(-c5ccccc5)c4[C@@H]2C[C@H]3Cl)cc1	9.78 µM	> 100 µM	–	17.3 µM	> 100 µM	> 100 µM	> 100 µM	23.8 µM	> 100 µM	–	–	–	–	–	–	–	–
Clc1ccc(Cc2nc3ccccc3nc2-c2cccc(Br)c2)cc1	9.93 µM	30.4 µM	5.04 µM	24.5 µM	–	1.36 µM	8.09 µM	3.48 µM	3.14 µM	–	–	–	–	–	–	–	–
CC1(C)OCC(C(O)C2OC(C)(C)OC2C=O)O1 (stereo not given)	–	> 100 µM	> 100 µM	> 100 µM	> 100 µM	–	> 100 µM	> 100 µM	> 100 µM	–	–	–	–	–	–	–	–
Cc1cc(/C=C\c2ccc3ccccc3[n+]2C)c(O)c2ncccc12	4.63 µM	6.54 µM	> 100 µM	4.22 µM	4.39 µM	4.48 µM	> 100 µM	–	27.4 µM	0.26 µM	0.814 µM	0.331 µM	0.902 µM	0.494 µM	0.517 µM	0.0995 µM	0.399 µM
Cc1cccc2c1[nH]c1[nH]c(=O)[nH]c(=O)c12	> 100 µM	> 100 µM	> 100 µM	> 100 µM	–	> 100 µM	> 100 µM	> 100 µM	> 100 µM	–	–	–	–	–	–	–	–
CC[N+]1(C)CCC(O)(/C=C/c2ccc(OC)cc2)C(C(=O)/C=C/c2ccc(OC)cc2)C1 (stereo not given)	49.7 µM	11.6 µM	–	31.2 µM	31.7 µM	34.5 µM	> 56.2 µM	> 25.8 µM	35.6 µM	–	–	–	–	–	–	–	–
O=C(NCc1cccc(C(F)(F)F)c1)c1cc2sccc2nc1C(F)(F)F	> 100 µM	> 100 µM	> 100 µM	–	> 100 µM	> 100 µM	> 100 µM	73.7 µM	> 100 µM	–	–	–	–	–	–	–	–
Nc1ncnc2c1ncn2C1CCC(COS(N)(=O)=O)C1 (stereo not given)	–	> 100 µM	> 100 µM	> 100 µM	> 100 µM	> 100 µM	> 100 µM	> 100 µM	> 100 µM	–	–	–	–	–	–	–	–
COc1nc2c(c(=O)n1C)N[C@H]1[C@H](OC(C)=O)[C@@H](OC(C)=O)CO[C@H]1N2	> 100 µM	> 100 µM	–	> 100 µM	> 100 µM	> 100 µM	> 100 µM	> 100 µM	> 100 µM	–	–	–	–	–	–	–	–
CN(C)c1nc(N(C)C)nc(N(C)C23CC4CC(CC(C4)C2)C3)n1	63.4 µM	–	66.6 µM	> 100 µM	> 100 µM	55.8 µM	> 100 µM	> 100 µM	96 µM	–	–	–	–	–	–	–	–
N#Cc1nc(CCCCCN2C(=O)c3ccccc3C2=O)oc1N	> 100 µM	> 100 µM	74.5 µM	> 100 µM	> 100 µM	–	> 100 µM	> 100 µM	> 100 µM	–	–	–	–	–	–	–	–
CCOC(=O)C(=[N+]=[N-])C(=O)Nc1nn2nnnc2c2ccccc12	> 100 µM	–	> 100 µM	> 100 µM	> 100 µM	> 100 µM	> 100 µM	> 100 µM	> 100 µM	–	–	–	–	–	–	–	–
CN(C)CCNC(=O)c1ccc(NCCCN(C)CCCNc2ccc3c(=O)n(CCN(C)C)c(=O)n4c5ccccc5c(=O)c2c34)c2c(=O)c3ccccc3[nH]c12	1.25 µM	0.687 µM	–	–	1.34 µM	2.92 µM	0.885 µM	0.11 µM	0.523 µM	–	–	–	–	–	–	–	–
c1ccc(CCN2CCc3[nH]c4ccccc4c3C2)cc1	–	51.7 µM	> 100 µM	> 100 µM	41.8 µM	34.6 µM	44.7 µM	31.6 µM	41.8 µM	–	–	–	–	–	–	–	–
Clc1ccc(N2N=C(c3cccc(Nc4ccncc4)c3)CC2c2ccc3c(c2)OCO3)cc1 (stereo not given)	28.6 µM	–	15.9 µM	3.39 µM	–	2.86 µM	–	–	4.51 µM	4.92 µM	–	3.18 µM	1.84 µM	1.94 µM	–	1.24 µM	–
CC(=O)OCC1OC(n2c3c(c(-c4cccc5ccccc45)c(C#N)c2=S)CCCC3)C(OC(C)=O)C(OC(C)=O)C1OC(C)=O (stereo not given)	–	> 100 µM	> 100 µM	> 100 µM	> 100 µM	> 100 µM	> 100 µM	> 100 µM	> 100 µM	–	–	–	–	–	–	–	–
O=C(CCN1CCCC1)Nc1ccc2sc3ccccc3c(=O)c2n1	19.2 µM	–	25.8 µM	25.7 µM	19.9 µM	60.4 µM	17.3 µM	17.5 µM	19.6 µM	–	–	–	–	–	–	–	–
Cc1ccc(C2=NOC(=O)[C@@H]3CCCC[C@@H]23)cc1	> 100 µM	> 100 µM	> 100 µM	> 100 µM	> 100 µM	–	> 100 µM	> 100 µM	> 100 µM	–	–	–	–	–	–	–	–

— PubChem BioAssay (NCI)
